How the values were obtained:
[1] = Toxicity, LD50 (male mice); conditions: mouse, in vivo
cows seized by ketosis = assay: Pharmacological test: oral administration of granules to cows seized by ketosis once daily for 6 weeks, blood and urine components with time; assay type: in vivo; for Ketone bodies in urine: key: +++: Detected noticeably; ++: Detected clearly; +: Slightly detected; -: Not detected
Procedure: Pharmacological tests for the active ingredient of pharmaceutical composition of the present invention were conducted, by making the active ingredient into granules as in Example 1 and forcibly administering the granules orally to cows seized by ketosis in a predetermined dose once daily for 6 weeks. Examinations of various check items were made for bloods and urines taken from the cows before and 1, 3 and 6 weeks after the administration. In serum biochemical diagnosis, bloods were taken, coagulated and then subjected to centrifugation (3,000 rpm, 15 min.) to obtain respective serums and these serums were used. Blood sugar level was determined by a method using a glucose oxidase; free fatty acids were determined by an ACS-ACO-POD method; and ketone bodies in blood were determined by a diffusion colorimetry using salicyl aldehyde (THIN-ROBERTSON method). Ketone bodies in urine were determined by the use of Labstix (Sankyo Miles).
50 Parts of a compound No. 6, 15.0 parts of light silicic acid anhydride, 5.0 parts of precipitated calcium carbonate, 5.0 parts of corn starch, 2.0 parts of crystalline cellulose, 5.0 parts of a polyvinyl alcohol and 30 parts of water are homogeneously mixed and kneaded. Then, the mixture is ground, pelletized, dried and sifted to prepare granules. The granules are used for curing of ketosis of cows.

male mice = assay: Toxicity, LD50 (male mice); conditions: male mice
[2] = 25 mg/kg oral once daily, 1 week after adm.
[3] = 25 mg/kg oral once daily, 3 weeks after adm.
[4] = 25 mg/kg oral once daily, 6 weeks after adm.
[5] = 25 mg/kg oral once daily, before adm.
[6] = 77.2 mg/kg oral once daily, 1 week after adm.
[7] = 77.2 mg/kg oral once daily, 3 weeks after adm.
[8] = 77.2 mg/kg oral once daily, 6 weeks after adm.
[9] = 77.2 mg/kg oral once daily, before adm.
[10] = 50 mg/kg oral once daily, 1 week after adm.
[11] = 50 mg/kg oral once daily, 3 weeks after adm.
[12] = 50 mg/kg oral once daily, 6 weeks after adm.
[13] = 50 mg/kg oral once daily, before adm.
[14] = 100 mg/kg oral once daily, 1 week after adm.
[15] = 100 mg/kg oral once daily, 3 weeks after adm.
[16] = 100 mg/kg oral once daily, 6 weeks after adm.
[17] = 100 mg/kg oral once daily, before adm.

SMILES: CC(C)OC(=O)C(C(=O)OC(C)C)=C1SCS1 [compound 1]
- LD50 [1]: > 5000 mg/kg

SMILES: CCOC(=O)C(C(=O)OC(C)C)=C1SCS1 [compound 2]
- LD50 [1]: > 5000 mg/kg

SMILES: CC(C)OC(=O)C(C(=O)OC(C)C)=C1SC(C(=O)O)S1 (stereo not shown) [compound 3]
- Acetoacetic acid in blood (cows seized by ketosis; [2]): 220 µmol/L
- Blood sugar level (cows seized by ketosis; [2]): 38.4 mg/dL
- Free fatty acids in blood (cows seized by ketosis; [2]): 416 μEq/l
- Ketone bodies in urine (cows seized by ketosis; [2]): ++
- Acetoacetic acid in blood (cows seized by ketosis; [3]): 816 µmol/L
- Blood sugar level (cows seized by ketosis; [3]): 34.0 mg/dL
- Free fatty acids in blood (cows seized by ketosis; [3]): 306 μEq/l
- Ketone bodies in urine (cows seized by ketosis; [3]): +
- Acetoacetic acid in blood (cows seized by ketosis; [4]): 400 µmol/L
- Blood sugar level (cows seized by ketosis; [4]): 43.3 mg/dL
- Free fatty acids in blood (cows seized by ketosis; [4]): 418 μEq/l
- Ketone bodies in urine (cows seized by ketosis; [4]): +
- Acetoacetic acid in blood (cows seized by ketosis; [5]): 628 µmol/L
- Blood sugar level (cows seized by ketosis; [5]): 33.0 mg/dL
- Free fatty acids in blood (cows seized by ketosis; [5]): 1,423 μEq/l
- Ketone bodies in urine (cows seized by ketosis; [5]): +++
- LD50 [1]: > 5000 mg/kg

SMILES: CC(C)OC(=O)C(C(=O)OC(C)C)=C1SC=CS1 [compound 4]
- Acetoacetic acid in blood (cows seized by ketosis; [6]): 50 µmol/L
- Blood sugar level (cows seized by ketosis; [6]): 40.3 mg/dL
- Free fatty acids in blood (cows seized by ketosis; [6]): 428 μEq/l
- Ketone bodies in urine (cows seized by ketosis; [6]): ++
- Acetoacetic acid in blood (cows seized by ketosis; [7]): 142 µmol/L
- Blood sugar level (cows seized by ketosis; [7]): 55.4 mg/dL
- Free fatty acids in blood (cows seized by ketosis; [7]): 303 μEq/l
- Ketone bodies in urine (cows seized by ketosis; [7]): +
- Acetoacetic acid in blood (cows seized by ketosis; [8]): 146 µmol/L
- Blood sugar level (cows seized by ketosis; [8]): 57.7 mg/dL
- Free fatty acids in blood (cows seized by ketosis; [8]): 238 μEq/l
- Ketone bodies in urine (cows seized by ketosis; [8]): -
- Acetoacetic acid in blood (cows seized by ketosis; [9]): 446 µmol/L
- Blood sugar level (cows seized by ketosis; [9]): 43.2 mg/dL
- Free fatty acids in blood (cows seized by ketosis; [9]): 1,377 μEq/l
- Ketone bodies in urine (cows seized by ketosis; [9]): +++
- LD50 (male mice): 3,120 mg/kg

SMILES: CC(C)OC(=O)C(C(=O)OC(C)C)=C1SCCS1 [compound 6, diisopropyl 1,3-dithiolan-2-ylindene malonate]
- Acetoacetic acid in blood (cows seized by ketosis; [2]): 630 µmol/L
- Blood sugar level (cows seized by ketosis; [2]): 23.5 mg/dL
- Free fatty acids in blood (cows seized by ketosis; [2]): 550 μEq/l
- Ketone bodies in urine (cows seized by ketosis; [2]): ++
- Acetoacetic acid in blood (cows seized by ketosis; [3]): 156 µmol/L
- Blood sugar level (cows seized by ketosis; [3]): 52.9 mg/dL
- Free fatty acids in blood (cows seized by ketosis; [3]): 201 μEq/l
- Acetoacetic acid in blood (cows seized by ketosis; [4]): 104 µmol/L
- Blood sugar level (cows seized by ketosis; [4]): 59.0 mg/dL
- Free fatty acids in blood (cows seized by ketosis; [4]): 351 μEq/l
- Acetoacetic acid in blood (cows seized by ketosis; [5]): 662 µmol/L
- Blood sugar level (cows seized by ketosis; [5]): 30.6 mg/dL
- Free fatty acids in blood (cows seized by ketosis; [5]): 1,148 μEq/l
- Ketone bodies in urine (cows seized by ketosis; [5]): +++
- Acetoacetic acid in blood (cows seized by ketosis; [10]): 1,344 μmol/1
- Blood sugar level (cows seized by ketosis; [10]): 34.3 mg/dL
- Free fatty acids in blood (cows seized by ketosis; [10]): 556.6 μEq/l
- Ketone bodies in urine (cows seized by ketosis; [10]): +
- Acetoacetic acid in blood (cows seized by ketosis; [11]): 608 μmol/1
- Blood sugar level (cows seized by ketosis; [11]): 43.3 mg/dL
- Free fatty acids in blood (cows seized by ketosis; [11]): 507.5 μEq/l
- Ketone bodies in urine (cows seized by ketosis; [11]): -
- Acetoacetic acid in blood (cows seized by ketosis; [12]): 102 μmol/1
- Blood sugar level (cows seized by ketosis; [12]): 64.8 mg/dL
- Free fatty acids in blood (cows seized by ketosis; [12]): 118.2 μEq/l
- Ketone bodies in urine (cows seized by ketosis; [12]): -
- Acetoacetic acid in blood (cows seized by ketosis; [13]): 1,550 μmol/1
- Blood sugar level (cows seized by ketosis; [13]): 33.6 mg/dL
- Free fatty acids in blood (cows seized by ketosis; [13]): 1,862.3 μEq/l
- Ketone bodies in urine (cows seized by ketosis; [13]): +++
- LD50 (male mice): 1,350 mg/kg

SMILES: CC(C)OC(=O)C(C(=O)OC(C)C)=C1SCC[S+]1[O-] (stereo not shown) [compound 7]
- LD50 [1]: > 6000 mg/kg

SMILES: CC(C)OC(=O)C(C(=O)OC(C)C)=C1SCC(O)S1 (stereo not shown) [compound 8]
- Acetoacetic acid in blood (cows seized by ketosis; [14]): 260 µmol/L
- Blood sugar level (cows seized by ketosis; [14]): 48.4 mg/dL
- Free fatty acids in blood (cows seized by ketosis; [14]): 476 μEq/l
- Ketone bodies in urine (cows seized by ketosis; [14]): +
- Acetoacetic acid in blood (cows seized by ketosis; [15]): 586 µmol/L
- Blood sugar level (cows seized by ketosis; [15]): 41.0 mg/dL
- Free fatty acids in blood (cows seized by ketosis; [15]): 747 μEq/l
- Ketone bodies in urine (cows seized by ketosis; [15]): +
- Acetoacetic acid in blood (cows seized by ketosis; [16]): 76 µmol/L
- Blood sugar level (cows seized by ketosis; [16]): 53.5 mg/dL
- Free fatty acids in blood (cows seized by ketosis; [16]): 371 μEq/l
- Ketone bodies in urine (cows seized by ketosis; [16]): -
- Acetoacetic acid in blood (cows seized by ketosis; [17]): 1,232 μmol/l
- Blood sugar level (cows seized by ketosis; [17]): 32.0 mg/dL
- Free fatty acids in blood (cows seized by ketosis; [17]): 1,727 μEq/l
- Ketone bodies in urine (cows seized by ketosis; [17]): +++
- LD50 [1]: > 6590 mg/kg

Source: US5001143A, “Pharmaceutical composition for prophylactic and preventive of ketosis of livestocks” (Nihon Nohyaku Co., Ltd., priority 1983, dated 1991)
